This is an account of results in PMC4114533, “Synthesis, Anti-tubulin and Antiproliferative SAR of Steroidomimetic Dihydroisoquinolinones” (Chemmedchem, 2014).

Molecules are shown by their SMILES. Like-named read-outs stand apart in the source and are kept apart here.

The subject of experiment [1] is MDA MB-231 human breast cancer cells. The experiment can be described thus: Antiproliferative assay (WST-1, 96 h), MDA MB-231. It counts as cell-based. The note with it: MDA MB-231 cells, WST-1, mean of three determinations. How it is done:
(§1) Cell lines: DU-145 (brain metastasis carcinoma of the prostate) and MDA MB-231 (metastatic pleural effusion of breast adenocarcinoma) established human cell lines were obtained from ATCC Global Bioresource Center. Cells were maintained in a 5 % CO2 humidified atmosphere at 37 °C in RPMI-1640 medium, supplemented with 10 % fetal bovine serum, penicillin, (100 U mL^−1), and streptomycin (0.1 mg mL^−1). The effect of drugs on tubule formation was assessed using an angiogenesis kit (TCS-Cellworks).
(§2) Antiproliferative assays: DU-145 and MDA MB-231 cells were seeded into 96-well microtitre plates (5000 cells per well) and treated with compound (10^−9–10^−4 M) or with vehicle control. At 96 h post-treatment, live cell counts were determined by WST-1 cell proliferation assay (Roche, Penzberg, Germany), as per the manufacturer’s instructions. Viability results were expressed as a percentage of mean control values resulting in the calculation of the 50 % growth inhibition (GI50). All experiments were performed in triplicate.

The test system of experiment [2] is Bovine brain tubulin. In words: Tubulin polymerisation (assembly) assay. It counts as biochemical. The note with it: 10 μM tubulin, mean ±SD of at least two determinations; read-out: TP IC50 (tubulin polymerisation). The protocol:
(§3) Tubulin assays: Bovine brain tubulin, prepared as described previously,[16] was used in studies presented here. Assembly IC50 values were determined as described in detail elsewhere.[17] Briefly, 1.0 mg mL^−1 (10 μM) tubulin was pre-incubated without GTP with varying compound concentrations for 15 min at 30 °C. Reaction mixtures were placed on ice, and GTP (final concentration, 0.4 mM) was added. The reaction mixtures were transferred to cuvettes, held at 0 °C in a recording spectrophotometer. Baselines were established at 0 °C, and increase in turbidity was followed for 20 min following a rapid (<30 s) jump to 30 °C. Compound concentrations required to decrease the turbidity increase by 50 % were determined. The method for measuring inhibition of the binding of [^3H]colchicine to tubulin was described in detail previously.[18] Reaction mixtures contained 0.1 mg mL^−1 (1.0 μM) tubulin, 5.0 μM [^3H]colchicine, and potential inhibitor at 5.0 μM. […] A minimum of two experiments were performed with each compound.

In experiment [3] the test system is DU-145 human prostate cancer cells. The experiment can be described thus: Antiproliferative assay (WST-1, 96 h), DU-145. The note with it: for GI50: Homo sapiens, DU-145 cells, 96 h, WST-1, mean of three determinations; for fold more active than the 3′-methoxy derivatives: vs 3′-methoxy derivatives 16 b and 17 b. The class given is cell-based. The protocol: as §1, §2
Background: Tetrazolium assays rely on reduction of a dye to a coloured formazan, in cell work by metabolically active cells.

The target in experiment [4] is T1, Bovine brain tubulin (Bos taurus, UniProt P81947+Q6B856).
T1 construct: from tissue; host or cells: bovine brain
T1 sequence (Q6B856 whole entry): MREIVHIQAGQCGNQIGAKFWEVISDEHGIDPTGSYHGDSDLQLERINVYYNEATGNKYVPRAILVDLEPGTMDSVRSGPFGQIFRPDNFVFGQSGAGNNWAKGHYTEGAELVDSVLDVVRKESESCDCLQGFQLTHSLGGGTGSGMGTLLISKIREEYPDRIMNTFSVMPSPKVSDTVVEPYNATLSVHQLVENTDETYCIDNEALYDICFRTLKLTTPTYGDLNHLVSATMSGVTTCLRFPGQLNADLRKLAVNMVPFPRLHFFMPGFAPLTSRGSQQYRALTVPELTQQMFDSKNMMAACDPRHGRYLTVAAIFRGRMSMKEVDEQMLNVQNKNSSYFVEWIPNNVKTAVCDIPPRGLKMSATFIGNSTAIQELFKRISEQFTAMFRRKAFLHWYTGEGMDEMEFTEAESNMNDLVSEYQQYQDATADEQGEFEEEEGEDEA
T1 sequence (P81947 whole entry): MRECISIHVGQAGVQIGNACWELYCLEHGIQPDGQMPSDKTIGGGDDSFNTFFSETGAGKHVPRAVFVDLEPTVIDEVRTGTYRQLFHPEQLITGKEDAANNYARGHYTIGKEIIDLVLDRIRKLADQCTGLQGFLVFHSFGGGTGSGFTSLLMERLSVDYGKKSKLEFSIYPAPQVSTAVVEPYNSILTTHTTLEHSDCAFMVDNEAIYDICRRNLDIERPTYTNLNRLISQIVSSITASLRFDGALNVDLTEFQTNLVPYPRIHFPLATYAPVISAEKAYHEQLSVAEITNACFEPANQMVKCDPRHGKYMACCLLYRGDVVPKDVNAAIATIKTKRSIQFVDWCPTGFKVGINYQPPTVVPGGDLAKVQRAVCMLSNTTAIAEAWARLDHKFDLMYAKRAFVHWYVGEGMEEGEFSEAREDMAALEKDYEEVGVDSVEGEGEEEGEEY
In words: Inhibition of [3H]colchicine binding to tubulin. The note with it: mean ±SD; for inhibition at 5 µM: 5 μM inhibitor, 1.0 μM tubulin, 5.0 μM [3H]colchicine, read-out: CB [% inhib.] 5 μM inhibitor. How it is done:
as §3

Experiment [5] deals with HUVECs within a matrix of human diploid fibroblasts of dermal origin. The experiment can be described thus: In vitro model of angiogenesis (tubule formation, co-culture). The note with it: 25 nM and 50 nM, VEGF-stimulated, quantified after 11 days. It counts as cell-based. How it is done: Compounds 16 f and 17 f were also assayed for anti-angiogenic activity in an in vitro model of angiogenesis, wherein endothelial cells co-cultured in a matrix of human dermal fibroblasts are used to assess anti-angiogenic potential (Figure 2). When stimulated with VEGF the endothelial cells proliferate and migrate through the matrix to form tubule-like structures. The extent of tubule formation was quantified after 11 days as described elsewhere.[14] […] Quantification carried out by calculating total pixel length reflects the lack of tubule formation.
Cell lines: DU-145 (brain metastasis carcinoma of the prostate) and MDA MB-231 (metastatic pleural effusion of breast adenocarcinoma) established human cell lines were obtained from ATCC Global Bioresource Center. […] The effect of drugs on tubule formation was assessed using an angiogenesis kit (TCS-Cellworks).
Anti-angiogenic assays: HUVECs were cultured in a 24-well plate within a matrix of human diploid fibroblasts of dermal origin in optimised medium supplied by the company. […] The extent of tubule formation was then quantified, either manually by eye or using free software available through the National Institutes of Health website (NIH image [Mac version] from http://rsb.info.nih.gov/nih-image/download.html). […] After correcting for background the software counted the number of pixels representing tubules. […]

Experiment [6] deals with MDA MB-231 human breast cancer cells. Also on record: method as in PMID 24124095. The note with it: MDA MB-231 cells; data taken from the literature ref 8; cited from earlier work.
Experiment [7] deals with DU-145 human prostate cancer cells. Further details: method as in PMID 24124095. The note with it: DU-145 cells; data taken from the literature ref 8; cited from earlier work.
For experiment [8], the target named is carbonic anhydrase. In words: Carbonic anhydrase inhibition. It counts as biochemical.
Experiment [9] deals with Colon HCT-116. In words: NCI 60-cell line assay, HCT-116. The note with it: Homo sapiens, NCI-60 panel, mean of three determinations. The class given is cell-based. The protocol:
(§4) Data from seven cell lines are presented along with the mean activity across the whole panel (MGM value). Screening was conducted at concentrations ranging from 10 nM upwards, with maximal activity (where a 50 % growth inhibition was obtained in all cell lines at a concentration of 10 nM) being indicated by an MGM value of 10 nM.

Experiment [10] has as its system Melanoma UACC-62. The experiment can be described thus: NCI 60-cell line assay, UACC-62. The class given is cell-based. The note with it: Homo sapiens, NCI-60 panel, lowest concentration screened 10 nM. The protocol: as §4
Experiment [11] deals with Leukemia CCRF-CEM. In words: NCI 60-cell line assay, CCRF-CEM. The class given is cell-based. The note with it: Homo sapiens, NCI-60 panel, mean of three determinations. How it is done: as §4
Experiment [12] relates to NCI 60-cell line panel. The experiment can be described thus: NCI 60-cell line assay, mean across whole panel (MGM). It counts as cell-based. The note with it: NCI-60 panel. The protocol:
as §4

Experiment [13] relates to Lung HOP-62. The experiment can be described thus: NCI 60-cell line assay, HOP-62. It counts as cell-based. The note with it: Homo sapiens, NCI-60 panel, mean of three determinations. The protocol: as §4
Experiment [14] concerns Ovarian OVCAR-3. In words: NCI 60-cell line assay, OVCAR-3. It counts as cell-based. The note with it: Homo sapiens, NCI-60 panel, lowest concentration screened 10 nM. How it is done: as §4
Experiment [15] concerns Renal SN12-C. In words: NCI 60-cell line assay, SN12-C. It counts as cell-based. The note with it: Homo sapiens, SN12C; NCI-60 panel, mean of three determinations. How it is done: as §4
Experiment [16] relates to CNS SF-539. In words: NCI 60-cell line assay, SF-539. The class given is cell-based. The note with it: CNSSF-539; NCI-60 panel, mean of three determinations. The protocol:
as §4

Details of experiment [17]: method as in PMID 22247790, PMID 24124095. The note with it: THIQ series, cell line not printed ref 7, 8; cited from earlier work.

By GI50 is commonly meant the concentration giving 50% growth inhibition. The term IC50 denotes the midpoint of a concentration-inhibition curve.

For the compound `COc1cc(OC)cc(C(=O)N2CCc3cc(O)c(OC)cc3C2=O)c1` [16 f, 6-Hydroxy-2-(3,5-dimethoxybenzoyl)-7-methoxy-3,4-dihydroisoquinolin-1(2H)-one], the figures for the GI50 in experiment [1] and in [3] were 161 nM and 215 nM, respectively. Besides, the half-maximal inhibitory concentration (IC50) in experiment [2] is 1500 ± 100 nM. In experiment [3], the “fold more active than the 3′-methoxy derivatives” value was more than 10 fold. Also, in [4], the inhibition at 5 µM worked out at 81 ± 0.7%. Further, the “formation of tubule-like structures” value in experiment [5] is “almost completely inhibits”.
Consider `COc1cc2c(cc1OS(N)(=O)=O)CCN(C(=O)c1cc(OC)c(OC)c(OC)c1)C2` [19 c], for which the values for the GI50 in experiment [6] and in experiment [7] were 1720 nM and 1810 nM, respectively.
As to `COc1cc(OC)cc(C(=O)N2CCc3cc(OS(N)(=O)=O)c(OC)cc3C2=O)c1` [17 f, 2-(3,5-Dimethoxybenzoyl)-7-methoxy-6-sulfamoyloxy-3,4-dihydroisoquinolin-1(2H)-one], the IC50 in [8] stood at 890 nM; in experiment [2], 1300 ± 10 nM. Also, the figures for the 50% growth inhibitory concentration (GI50) in experiment [1] and in experiment [3] were 118 nM and 179 nM, respectively. In addition, in experiment [3], the “fold more active than the 3′-methoxy derivatives” value was more than 10 fold. Also, the inhibition at 1 µM in experiment [4] (1 μM inhibitor, read-out: CB [% inhib.] 1 μM inhibitor) was found to be 65 ± 3%. The inhibition at 5 µM in [4] turned out to be 89 ± 0.1%. Besides, the “formation of tubule-like structures” value in experiment [5] is reported as “almost completely inhibits”.
For `COc1cc2c(cc1O)CCN(C(=O)c1cc(OC)c(OC)c(OC)c1)C2=O` [16 g, 6-Hydroxy-7-methoxy-2-(3,4,5-trimethoxybenzoyl)-3,4-dihydroisoquinolin-1(2H)-one], the 50% growth inhibitory concentration (GI50) is 21.6 nM in experiment [9]; 71 nM in experiment [1]; 51 nM in experiment [3]; less than 10 nM in [10]; 17.1 nM in experiment [11]; 29.5 nM in experiment [13]. For the same compound, the GI50 was less than 10 nM in [14], 56 nM in [15] and 10.2 nM in experiment [16]. Further, the IC50 in experiment [2] came to 1300 ± 100 nM. Moreover, the inhibition at 5 µM in experiment [4] was determined as 83 ± 2%. For the same compound, the “mean activity in the NCI 60-cell line assay” value in experiment [12] came to 33 nM. Besides, the “MGM (mean concentration that caused 50 % growth inhibition in all 60 cell lines)” value in experiment [12] (all 60 cell lines) was found to be 0.033 µM.
With `COc1cc2c(cc1O)CCN(C(=O)c1cc(OC)c(OC)c(OC)c1)C2` [18 c], the GI50 is 733 nM in experiment [6] and 921 nM in [7].
Take `COc1cccc(CN2CCc3cc(OS(N)(=O)=O)c(OC)cc3C2)c1` [compound 2]: the GI50 in experiment [17] is 2100 nM.
